Structures are written as SMILES. pEC50, pIC50: −log10 of the molar value. Read-outs that look alike come from different tables or passages of the source.

Common to all, as to assay type: cell-based
The test system of one assay is 786-O renal cancer cells. Kind of assay: Antiproliferative activity, ATP assay, 786-O. The settings on record: Homo sapiens. As to the method: (§1) The antiproliferative activity of compounds of this invention or their conjugates was assayed as follows. Human tumor cell lines were obtained from the American Type Culture Collection (ATCC), P.O. Box 1549, Manassas, Va. 20108, USA, and cultured according to instruction from the ATCC. Cells were seeded at 1.0×10^3 or 1.0×10^4 cells/well in 96-well plates for 3 h for ATP assays or ^3H thymidine assays, respectively. 1:3 serial dilutions of free (unconjugated) compounds or their conjugates were added to the wells. Plates were allowed to incubate for 24 to 72 h. The ^3H thymidine plates were pulsed with 1.0 μCi of ^3H-thymidine per well for the last 24 hours of the total incubation period, harvested, and read on a Top Count Scintillation Counter (Packard Instruments, Meriden, Conn.). ATP levels in the ATP plates were measured using the CELLTITER-GLO® Luminescent Cell Viability kit following the manufacturer's manual and read on a GLOMAX® 20/20 luminometer (both from Promega, Madison, Wis., USA). The EC50 values—the concentration at which an agent inhibits or reduces cell proliferation by 50%—were determined using PRISM™ software, version 4.0 (GraphPad Software, La Jolla, Calif., USA).
The ATP assay was used, with a 72 h incubation period.

For the next assay, the system named is H226 lung cancer cells. Kind of assay: Antiproliferative activity, ATP assay, H226. The note with it: Homo sapiens. As to the method:
as §1
FIG. 12b is a similar antiproliferative plot, but against H226 lung cancer cells. The ATP assay was used, with a 72 h incubation period.
FIG. 13c is another plot of the antiproliferative activity of conjugates 2H5-(IVf) and 6A4-(IVf) against H226 cells, but measured using the ATP assay, with a 72 h incubation period.

The test system of assay [1] is CCRF-CEM (acute lymphoblastic leukemia). Kind of assay: Antiproliferative activity, ATP method, CCRF-CEM. The settings on record: Homo sapiens. As to the method:
as §1
(§2) The assay method was the ATP method. The cancer cell lines tested against were A2780 (ovarian), A549 (lung), CCRF-CEM (acute lymphoblastic leukemia), COLO205 (colon), DU4475 (breast), H2087 (lung, non-small cell), H661 (lung, large cell), HCT116 (colon), LNCaP (prostate), LS174T (colon), MDA MB468 (breast), MDA MB231 (breast), and SET2 (leukemia). The antiproliferative effects are reported as IC50's, i.e., the concentration of toxin that produces a 50% inhibitory effect.

A further assay has as its system MDA MB231 (breast). The assay can be described thus: Antiproliferative activity, ATP method, MDA MB231. The note with it: Homo sapiens, MDA-MB-231. The method, then: as §1, §2
Another assay has as its system A2780 (ovarian). Kind of assay: Antiproliferative activity, ATP method, A2780. The settings on record: Homo sapiens. The method, then: as §1, §2
The subject of another assay is DU4475 (breast). Kind of assay: Antiproliferative activity, ATP method, DU4475. The settings on record: Homo sapiens, DU-4475. The method, then: as §1, §2
The next assay deals with SET2 (leukemia). The assay can be described thus: Antiproliferative activity, ATP method, SET2. The settings on record: Homo sapiens, SET-2. The method, then: as §1, §2
The next assay has as its system A549 (lung). The assay can be described thus: Antiproliferative activity, ATP method, A549. The settings on record: Homo sapiens.
The next assay deals with LS174T (colon). Kind of assay: Antiproliferative activity, ATP method, LS174T. The note with it: Homo sapiens. As to the method:
as §1, §2

The test system of the next assay is COLO205 (colon). The assay can be described thus: Antiproliferative activity, ATP method, COLO205. The settings on record: Homo sapiens, COLO 205. As to the method:
as §1, §2

For another assay, the system named is HL-60 leukemia cells. Kind of assay: Antiproliferative activity, ATP assay, HL-60. The note with it: Homo sapiens. As to the method: as §1
FIG. 11a is a plot of the antiproliferative activity of compound (IIa) against HL-60 leukemia cells, as measured by the ATP assay using a 72 h incubation period, compared against three reference compounds: doxorubicin (adriamycin), uncialamycin, and Compound A, which is a DNA alkylating agent having the following structure: […]

Assay [2] concerns H2087 (lung, non-small cell). The assay can be described thus: Antiproliferative activity, ATP method, H2087. The settings on record: Homo sapiens, NCI-H2087. The method, then: as §1, §2
The next assay relates to HCT116 (colon). Kind of assay: Antiproliferative activity, ATP method, HCT116. The settings on record: Homo sapiens, HCT-116. As to the method:
as §1, §2

In assay [3] the test system is doxorubicin-resistant ovarian cancer cell line (Adr). Kind of assay: Antiproliferative activity, ATP assay, Adr. The settings on record: Homo sapiens. As to the method:
as §1
FIG. 11b is an analogous plot of antiproliferative activity against a doxorubicin-resistant ovarian cancer cell line (Adr), also using the ATP assay and a 72 h incubation period.

The next assay has as its system H661 (lung, large cell). Kind of assay: Antiproliferative activity, ATP method, H661. The note with it: Homo sapiens, NCI-H661. The method, then:
as §1, §2

The test system of another assay is LNCaP (prostate). Kind of assay: Antiproliferative activity, ATP method, LNCaP. The note with it: Homo sapiens. As to the method: as §1, §2
The subject of a further assay is MDA MB468 (breast). Kind of assay: Antiproliferative activity, ATP method, MDA MB468. The note with it: Homo sapiens, MDA-MB-468. The method, then: as §1, §2
The mark [4] stands for this setting: CCRF-CEM cell line, ATP method, read-out: IC50.
[5] abbreviates: MCD MB231 cell line, ATP method, read-out: IC50.
The mark [6] stands for this setting: A2790 cell line, ATP method, read-out: IC50.
Where [7] appears, read: DU4475 cell line, ATP method, read-out: IC50.
[8] abbreviates: SET2 cell line, ATP method, read-out: IC50.
[9] abbreviates: A549 cell line, ATP method, read-out: IC50.
Where [10] appears, read: LS174T cell line, ATP method, read-out: IC50.
Setting [11] is: COLO205 cell line, ATP method, read-out: IC50.
[12] abbreviates: HL-60 leukemia cells, ATP assay, 72 h incubation, read-out: EC50.
Setting [13] is: H2087 cell line, ATP method, read-out: IC50.
Where [14] appears, read: HCT116 cell line, ATP method, read-out: IC50.
Setting [15] is: Adr cells (doxorubicin-resistant ovarian), ATP assay, 72 h incubation, read-out: EC50.
[16] abbreviates: H661 cell line, ATP method, read-out: IC50.
Setting [17] is: LNCaP cell line, ATP method, read-out: IC50.
The mark [18] stands for this setting: MDA MB468 cell line, ATP method, read-out: IC50.

Procedure for A549 (lung): The antiproliferative activity of compounds of this invention or their conjugates was assayed as follows. […] Cells were seeded at 1.0×10^3 or 1.0×10^4 cells/well in 96-well plates for 3 h for ATP assays or ^3H thymidine assays, respectively. 1:3 serial dilutions of free (unconjugated) compounds or their conjugates were added to the wells. Plates were allowed to incubate for 24 to 72 h. The ^3H thymidine plates were pulsed with 1.0 μCi of ^3H-thymidine per well for the last 24 hours of the total incubation period, harvested, and read on a Top Count Scintillation Counter (Packard Instruments, Meriden, Conn.). […] The EC50 values—the concentration at which an agent inhibits or reduces cell proliferation by 50%—were determined using PRISM™ software, version 4.0 (GraphPad Software, La Jolla, Calif., USA).

As a reminder, the pEC50 is the EC50 on a negative log10 scale, so that one unit is a factor of ten. As to `C[C@@H](O)[C@@]12O[C@]13c1cc(O)c4c(c1N[C@H]2C#C/C=C\C#C[C@H]3O)C(=O)c1ccc(NC(=O)c2ccc(N)cc2)cc1C4=O` [Compound (IId)], the pEC50 with 786-O renal cancer cells (786-0, 72 h) was 10.24; in the assay with H226 lung cancer cells (NCI-H226, 72 h), 9.06.

A word on the pIC50: it is the negative decadic logarithm of the IC50, by convention in mol/L. For `C[C@@H](O)[C@@]12O[C@]13c1cc(O)c4c(c1N[C@H]2C#C/C=C\C#C[C@H]3O)C(=O)c1ccc(N)cc1C4=O` [Compound (IIa), 8-aminouncialamycin], the negative logarithm of the IC50 (pIC50) in [1] (CCRF-CEM) is 10.85; with MDA MB231 (breast), 10.07; in the assay with A2780 (ovarian) it was 11.52; with DU4475 (breast) it was 11.70; in the assay on SET2 (leukemia) it was 11.10; with A549 (lung) (A549), 10.12. The pIC50 with LS174T (colon) (LS174T) is 11.70; in the assay on COLO205 (colon) it was 11.00; in assay [2], 10.43; in the assay with HCT116 (colon), 11.15; in the assay on H661 (lung, large cell) it was 10.28; with LNCaP (prostate) (LNCaP), 12.00. The same compound gave a pIC50 with MDA MB468 (breast) of 10.92. Also, the pEC50 was 11.39 with HL-60 leukemia cells (HL-60, 72 h); 10.21 in assay [3] (72 h); 9.94 with 786-O renal cancer cells (786-0, 72 h); 9.00 in the assay with H226 lung cancer cells (NCI-H226, 72 h).

Turning to `Nc1ccc(C(=O)Nc2ccc3[nH]c(C(=O)N4C[C@@H](CCl)c5c4cc(O)c4ccccc54)cc3c2)cc1` [Compound A], the pIC50 was 10.72 in assay [1] (setting [4]); 10.17 in the assay on MDA MB231 (breast) (setting [5]); 11.40 in the assay with A2780 (ovarian) (setting [6]); 12.00 in the assay with DU4475 (breast) (setting [7]); 11.70 in the assay on SET2 (leukemia) (setting [8]); 10.40 in the assay on A549 (lung) (setting [9]). Further, the pIC50 with LS174T (colon) (setting [10]) is 10.82; in the assay with COLO205 (colon) (setting [11]), 10.72; in [2] (setting [13]), 10.72; in the assay on HCT116 (colon) (setting [14]), 11.70; in the assay on H661 (lung, large cell) (setting [16]), 10.70; in the assay with LNCaP (prostate) (setting [17]), 11.00. For the same compound, in the assay with MDA MB468 (breast) (setting [18]), the pIC50 is 11.05. In addition, the values for the pEC50 (in the assay on HL-60 leukemia cells (setting [12]); in [3] (setting [15])) were 11.73 and 9.84, respectively.

In the case of `COc1cccc2c1C(=O)c1c(O)c3c(c(O)c1C2=O)C[C@@](O)(C(=O)CO)C[C@@H]3O[C@H]1C[C@H](N)[C@H](O)[C@H](C)O1` [Doxorubicin, doxorubicin], the pIC50 in assay [1] (setting [4]) is 7.71; with MDA MB231 (breast) (setting [5]), 7.04; in the assay on A2780 (ovarian) (setting [6]) it was 7.95; in the assay on DU4475 (breast) (setting [7]), 8.54; with SET2 (leukemia) (setting [8]), 7.17; with A549 (lung) (setting [9]) it was 6.86. The pIC50 with LS174T (colon) (setting [10]) was 7.95; with COLO205 (colon) (setting [11]), 7.71; in assay [2] (setting [13]), 7.26; with HCT116 (colon) (setting [14]), 7.63; in the assay with H661 (lung, large cell) (setting [16]), 7.58; with LNCaP (prostate) (setting [17]) it was 8.26. Also, the pIC50 in the assay with MDA MB468 (breast) (setting [18]) is 7.54. Besides, the pEC50 with HL-60 leukemia cells (setting [12]) was 8.22; in assay [3] (setting [15]), 5.41; in the assay with 786-O renal cancer cells (786-0, 786-O cells, ATP assay, 72 h incubation, read-out: EC50), 7.03; with H226 lung cancer cells (NCI-H226, H226 cells, ATP assay, 72 h incubation, free compounds, read-out: EC50), 6.85.

Take `C[C@@H](O)[C@@]12O[C@]13c1cc(O)c4c(c1N[C@H]2C#C/C=C\C#C[C@H]3O)C(=O)c1ccc(NCCN)cc1C4=O` [Compound (IIc)]: the pEC50 is 8.89 in the assay on 786-O renal cancer cells (786-0, 72 h) and 9.01 in the assay with H226 lung cancer cells (NCI-H226, 72 h).

Consider `CNc1ccc2c(c1)C(=O)c1c(O)cc3c(c1C2=O)N[C@H]1C#C/C=C\C#C[C@@H](O)[C@@]32O[C@@]12[C@@H](C)O` [Compound (IIe), 8-methylaminouncialamycin], for which the pEC50 in the assay with 786-O renal cancer cells (786-0, 72 h) is 8.77; with H226 lung cancer cells (NCI-H226, 72 h), 7.76.

On to `C[C@@H](O)[C@@]12O[C@]13c1cc(O)c4c(c1N[C@H]2C#C/C=C\C#C[C@H]3O)C(=O)c1ccccc1C4=O` [Uncialamycin, uncialamycin], for which the pEC50 with HL-60 leukemia cells (HL-60, 72 h) is 10.92; in assay [3] (72 h) it was 10.07.

Values taken from patent publication US9156850B2, “Enediyne compounds, conjugates thereof, and uses and methods therefor” (Bristol-Myers Squibb Company, priority 2012, dated 2015).
